The results in this text go back to article PMC549409 (Nucleic Acids Research, 2005).

SMILES strings stand for the structures.

For this assay, the target named is Has1p (Saccharomyces cerevisiae, UniProt Q03532). The assay is described as follows: malachite green ATPase assay, ADP competition. The assay is classed as biochemical. Particulars: 1 mM ADP with 1 mM ATP; total yeast RNA; pH 6.5; 2 mM MgCl2; 30°C; data not shown.
Has1p, sequence (Q03532 whole entry): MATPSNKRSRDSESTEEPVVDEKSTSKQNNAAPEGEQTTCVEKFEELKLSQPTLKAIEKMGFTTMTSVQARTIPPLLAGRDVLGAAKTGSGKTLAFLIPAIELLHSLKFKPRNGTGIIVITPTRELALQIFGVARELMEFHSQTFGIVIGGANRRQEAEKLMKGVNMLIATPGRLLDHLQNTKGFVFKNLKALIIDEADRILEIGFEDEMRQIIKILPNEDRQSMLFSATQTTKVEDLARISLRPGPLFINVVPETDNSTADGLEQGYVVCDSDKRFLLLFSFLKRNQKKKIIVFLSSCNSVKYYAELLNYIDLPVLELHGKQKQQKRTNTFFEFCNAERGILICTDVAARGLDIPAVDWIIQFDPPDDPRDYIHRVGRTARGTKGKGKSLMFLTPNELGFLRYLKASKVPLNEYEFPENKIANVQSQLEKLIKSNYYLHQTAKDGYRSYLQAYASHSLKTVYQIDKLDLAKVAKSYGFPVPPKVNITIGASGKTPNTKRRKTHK

For the compound `Nc1ncnc2c1ncn2[C@@H]1O[C@H](COP(=O)(O)OP(=O)(O)O)[C@@H](O)[C@H]1O` [ADP], the “fold reduction of ATPase activity at 1 mM ADP” value came to 5 fold.
